# Where “and” joins values, the source holds several entries; their conditions need not be identical. Equal values may be shown once.
# How the values were obtained:
# [1] = test system: A2780 tumor cells and TAMs; assay: Direct co-culture of pretreated A2780 cells with TAMs, Ki67/CD68 staining; type: cell-based, mouse
# Protocol: A2780 tumor cells were pretreated with 100 nM NHWD-870 and then directly co-cultured with TAMs (A2780:TAMs ratio as 4:1) at the density of 1 × 10^5 total cells in a 12-well. Shown are immunofluorescent staining of Ki67 and CD68 (a) and quantification of Ki67+ and CD68− or CD68+ cells (b). Scale bar is 50 μm. […] A2780 cells (pre-treated with or without 100 nM NHWD-870 for 48 h) were seeded into the top chamber (transwell size: 0.4 μm) and TAMs (Mac, 40,000 cells per 24-well) in medium containing 2% matrigel were seeded into the bottom chamber pre-coated with Matrigel. No NHWD-870 was added to the co-culture. The upper chamber without A2780 cells was used as a control. Shown are schematics of transwell co-culture experiment (c), representative pictures of TAM spheroid (d: black/white), and quantification of spheroid volumes (e). Scale bar is 50 μm. […] Data are presented as mean ± SEM from three independent experiments. g CSF1 protein levels in supernatant of 10^6 ID8, B16, A2780, SKOV3, and A375 cells treated with DMSO or 25 nM NHWD-870 for 24 h, as measured by ELISA. […] Scale bar is 20 μm. i Quantification of CSF1 staining in DMSO or 100 nM NHWD-870 treated A2780 cells. […] Shown are representative immunofluorescent staining of CSF1 (green) and CD68 (red) (j) and quantification of CSF1 staining (k). […]
# [2] = test system: A2780 cells; assay: MTT cell growth assay, A2780; type: cell-based, human; conditions: 5 days
# Protocol: Fig. 2 NHWD-870 inhibited BRD4 phosphorylation and c-MYC expression, and suppressed cell growth. a Representative western blot analysis of p-BRD4 (s484/488), BRD4, c-MYC, and GAPDH after treatment of MDA-MB231, SUM159, A2780 ES-2, and H526 cells with JQ-1 or NHWD-870 at the indicated concentrations for 24 h. GAPDH served as the loading control. Selected from three independent experiments. b MTT assays of H526, A2780, ES-2, and MDA-MB231 cells treated with JQ-1 or NHWD-870 at the indicated concentrations for 5 days. Data are presented as mean ± SEM from three independent experiments. c, d Clonogenic assays of H526, A2780, ES-2 and MDA-MB231 cells treated with 250 nM JQ-1 or NHWD-870 for 5 days. Shown are representative images (c) and quantification of colonies (d). […] Shown are representative images (e) and quantification of relative colony sizes (f). Scale bar, 50 μm. Data are presented as mean ± SEM from five independent experiments. p values were calculated using two-tailed, unpaired t tests in this figure. **p < 0.01; ***p < 0.001. Source data are provided as a Source Data file.
# 37℃, 5% CO2. […]
compound,measurement,setting,value
Cc1nnn(C)c1-c1cnc2c3c4cnn(C)c4ccc3n([C@H](c3ccccc3)C3CCOCC3)c2c1 [NHWD-870],quantification of Ki67+ and CD68+ cells,"[1]; A2780 pretreated with 100 nM, direct co-culture with TAMs",0
same,inhibition at 0.1 µM,"[1]; pre-treatment of A2780 cells with 100 nM, read-out: inhibition of the proliferation rate of TAMs",83%
same,"MTT assay, relative cell number","[2]; A2780, 0.1 nM",0.974 and 0.959 and 0.985
same,"MTT assay, relative cell number","[2]; A2780, 1 nM",0.705 and 0.725 and 0.731
same,"MTT assay, relative cell number","[2]; A2780, 10 nM",0.252 and 0.282 and 0.215
same,"MTT assay, relative cell number","[2]; A2780, 100 nM",0.025 and 0.047 and 0.033
same,"MTT assay, relative cell number","[2]; A2780, 500 nM",0
same,"MTT assay, relative cell number","[2]; A2780, 1000 nM",0
same,"MTT assay, relative cell number","[2]; A2780, 5000 nM",0
same,"MTT assay, relative cell number","[2]; A2780, 10000 nM",0
